Results: patent publication US9877957B2, “Tetrahydroisoquinoline derivatives useful as inhibitors of diacylglyceride O-acyltransferase 2” (Merck Sharp & Dohme Corp., priority 2014, dated 2018)

The compounds below were run against hDGAT2 (Homo sapiens (Human), UniProt Q96PD7) (assay: DGAT2 Enzymatic Activity Assay (triolein formation, LC/MS/MS)). Details: Sf-9 membrane prep expressing hDGAT2; 25 μM diolein, 10 μM oleoyl-CoA; room temperature; read-out: IC50 values for inhibition of DGAT2.
Type: biochemical
Method: In Vitro DGAT2 ASSAYS and Determination of IC50 Values for DGAT2 Inhibitors
Insect Cell Expression and Membrane Preparation
Sf-9 insect cells were maintained in Grace's insect cell culture medium with 10% heated-inactivated fetal bovine serum, 1% Pluronic F-68 and 0.14 μg/ml Kanamycine sulfate in Erlenmeyer flasks at 28° C. in a shaker incubator. After infection with untagged hDGAT2 baculovirus at multiplicity of infection (MOI) 0.1 for 48 hours, cells were harvested. Cell pellets were suspended in buffer containing 10 mM Tris-HCl (pH 7.5), 1 mM EDTA (pH 8.0), 250 mM sucrose and Complete Protease Inhibitor Cocktail (Roche Diagnostics Corp., Indianapolis, Ill.), and sonicated on ice. Membrane fractions were isolated by ultracentrifugation (100,000× g pellet), resuspended in the same buffer, and frozen (−80° C.) for later use. The protein concentration was determined with the BCA Protein Assay kit (Pierce Biotechnology Inc., Rockford, Ill.). Expression of protein levels was analyzed by immunoblotting with goat polyclonal DGAT2 antibody C-15 and donkey anti-goat IgG HRP (Santa Cruz Biotechnology, Inc., Santa Cruz, Calif.) followed by detection with ECL reagent (GE Healthcare, Piscataway, N.J.).
LC/MS/MS analyses were performed using Thermal Fisher's LX4-TSQ Vantage system. This system consists of an Agilent binary high-performance liquid chromatography (HPLC) pumps and a TSQ Vantage triple quadrupole MS/MS instrument. For each sample, 2 μL samples from the top organic layer of in-plate liquid-liquid extraction were injected onto a Thermo Betabasic C4 column (2.1 mm×20 mm, 5 μm particle size). The samples were then eluted using the following conditions; mobile phase: methanol/water with 0.1% ammonium format=92/8 (v/v), flow rate: 1 mL/min, temperature: 25° C. Data was acquired in positive mode using a heated electrospray ionization (HESI) interface. The operational parameters for the TSQ Vantage MS/MS instrument were a spray voltage of 3000 V, capillary temperature of 280° C., vaporizer temperature 400° C., shealth gas 60 arbitrary unit, Aux gas 40 arbitrary units, S-lens 113 and collision gas 0.16 Pascals. […] (SRM) chromatograms of triolein (Q1: 902.9>Q3:602.3) and internal standard (Q1: 902.9>Q3:602.3) were collected for 40 sec. The peak area was integrated by Xcalibur Quan software. The ratio between the triolein generated in the reaction and spiked in internal standard were used to generate percentage inhibition and IC50 values. Compound percentage inhibition was calculated by the following formula: Inhibition %=1−[(compound response−low control)/(high control−low control)]×100%. Potent compounds were titrated and IC50 were calculated by 4 parameter sigmoidal curve fitting formula.
DGAT2 Enzymatic Activity Assay
DGAT2 activity was determined by measuring the amount of enzymatic product triolein (1,2,3-Tri(cis-9-octadecenoyl)glycerol) using the membrane prep mentioned above. The assay was carried out in deep well 384 plates in a final volume of 40 μL at room temperature. The assay mixture contained the following: assay buffer (100 mM Tris·Cl, pH 7.0, 20 mM MgCl2, 5% ethanol), 25 μM of diolein, 10 μM of oleoyl-CoA and 10 ng/μL of DGAT2 membrane.

Chain of hDGAT2 (Q96PD7 whole entry): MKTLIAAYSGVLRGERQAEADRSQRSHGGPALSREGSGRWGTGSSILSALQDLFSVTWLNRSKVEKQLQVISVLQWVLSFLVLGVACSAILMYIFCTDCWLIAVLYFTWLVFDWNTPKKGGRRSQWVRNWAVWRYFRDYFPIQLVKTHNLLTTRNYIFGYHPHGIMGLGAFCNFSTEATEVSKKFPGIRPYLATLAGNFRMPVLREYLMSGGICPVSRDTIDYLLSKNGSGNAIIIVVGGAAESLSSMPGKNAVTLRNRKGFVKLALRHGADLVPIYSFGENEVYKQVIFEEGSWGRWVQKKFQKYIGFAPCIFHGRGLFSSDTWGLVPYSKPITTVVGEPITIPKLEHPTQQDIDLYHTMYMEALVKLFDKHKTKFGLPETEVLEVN

| Structure (SMILES) | IC50 [µM] |
| --- | --- |
| COc1cccc(-c2ccc(CNC(=O)c3cc(C(F)(F)F)n[nH]3)c3c2CCN(C(=O)NC(C)(C)C)C3)c1 [Example 4, N-(tert-butyl)-5-(3-methoxyphenyl)-8-((3-(trifluoromethyl)-1H-pyrazole-5-carboxamido)methyl)-3,4-dihydroisoquinoline-2(1H)-carboxamide] | 0.0414 |
| CC(C)(C)NC(=O)N1CCc2c(-c3cccc(OC(F)(F)F)c3)ccc(C(=O)NCc3cnn4ccccc34)c2C1 [Example 81, N^2-(tert-butyl)-N^8-(pyrazolo[1,5-a]pyridin-3-ylmethyl)-5-(3-(trifluoromethoxy)phenyl)-3,4-dihydroisoquinoline-2,8(1H)-dicarboxamide] | 0.37 |
| Cc1sc(-c2ccccc2)nc1CNC(=O)c1ccc(-c2cccc(C(F)(F)F)c2)c2c1CN(C(=O)NC(C)(C)C)CC2 [Example 32, N^2-(tert-butyl)-N^8-((5-methyl-2-phenylthiazol-4-yl)methyl)-5-(3-(trifluoromethyl)phenyl)-3,4-dihydroisoquinoline-2,8(1H)-dicarboxamide] | 0.539 |
| Cc1nc2ccccn2c1CNC(=O)c1ccc(-c2cccc(C(F)(F)F)c2)c2c1CN(C(=O)NC(C)(C)C)CC2 [Example 15, N^2-(tert-butyl)-N^8-((2-methylimidazo[1,2-a]pyridin-3-yl)methyl)-5-(3-(trifluoromethyl)phenyl)-3,4-dihydroisoquinoline-2,8(1H)-dicarboxamide] | 0.12 |
| CC(C)(C)NC(=O)N1CCc2c(-c3cccc(C(F)(F)F)c3)ccc(C(=O)NCCn3cnnc3)c2C1 [Example 71, N^8-(2-(4H-1,2,4-triazol-4-yl)ethyl)-N^2-(tert-butyl)-5-(3-(trifluoromethyl)phenyl)-3,4-dihydroisoquinoline-2,8(1H)-dicarboxamide] | 0.178 |
| CC(NC(=O)c1ccc(-c2cccc(OC(F)(F)F)c2)c2c1CN(C(=O)NC(C)(C)C)CC2)c1nc(-c2ccccn2)no1 (stereo not shown) [Example 73, N^2-(tert-butyl)-N^8-(1-(3-(pyridin-2-yl)-1,2,4-oxadiazol-5-yl)ethyl)-5-(3-(trifluoromethoxy)phenyl)-3,4-dihydroisoquinoline-2,8(1H)-dicarboxamide] | 0.511 |
| CC(C)(C)NC(=O)N1CCc2c(-c3cccc(C(F)(F)F)c3)ccc(C(=O)NCCc3cn4cccnc4n3)c2C1 [Example 49, N^2-(tert-butyl)-N^8-(2-(imidazo[1,2-a]pyrimidin-2-yl)ethyl)-5-(3-(trifluoromethyl)phenyl)-3,4-dihydroisoquinoline-2,8(1H)-dicarboxamide] | 1.57 |
| COc1ccc2nc(CCNC(=O)c3ccc(-c4cccc(OC(F)(F)F)c4)c4c3CN(C(=O)NC(C)(C)C)CC4)[nH]c2c1 [Example 13, N^2-(tert-butyl)-N^8-(2-(6-methoxy-1H-benzo[d]imidazol-2-yl)ethyl)-5-(3-(trifluoromethoxy)phenyl)-3,4-dihydroisoquinoline-2,8(1H)-dicarboxamide] | 0.0689 |
| CC(C)(C)NC(=O)N1CCc2c(-c3cccc(C(F)(F)F)c3)ccc(C(=O)NCc3nnc4n3CCC4)c2C1 [Example 51, N^2-(tert-butyl)-N^8-((6,7-dihydro-5H-pyrrolo[2,1-c][1,2,4]triazol-3-yl)methyl)-5-(3-(trifluoromethyl)phenyl)-3,4-dihydroisoquinoline-2,8(1H)-dicarboxamide] | 2.03 |
| CC(C)(C)NC(=O)N1CCc2c(-c3cccc(C(F)(F)F)c3)ccc(C(=O)NCCc3nc4ccccc4[nH]3)c2C1 [Example 9, N^8-(2-(1H-benzo[d]imidazol-2-yl)ethyl)-N^2-(tert-butyl)-5-(3-(trifluoromethyl)phenyl)-3,4-dihydroisoquinoline-2,8(1H)-dicarboxamide] | 0.0511 |
| CC(C)(C)NC(=O)N1CCc2c(-c3cccc(OC(F)(F)F)c3)ccc(C(=O)N3CCCCC3c3ccccc3)c2C1 (stereo not shown) [Example 57, N-(tert-butyl)-8-(2-phenylpiperidine-1-carbonyl)-5-(3-(trifluoromethoxy)phenyl)-3,4-dihydroisoquinoline-2(1H)-carboxamide] | 8.76 |
| CC(C)(C)NC(=O)N1CCc2c(-c3cccc(C(F)(F)F)c3)ccc(C(=O)NC[C@H]3C[C@@H]3c3ccccc3)c2C1 (relative stereo) [Example 69, N^2-(tert-butyl)-N^8-(((trans)-2-phenylcyclopropyl)methyl)-5-(3-(trifluoromethyl)phenyl)-3,4-dihydroisoquinoline-2,8(1H)-dicarboxamide] | 0.528 |
| CC(C)(C)NC(=O)N1CCc2c(-c3cccc(C(F)(F)F)c3)ccc(C(=O)Nc3nonc3-c3nc4ccccc4[nH]3)c2C1 [Example 53, N^8-(4-(1H-benzo[d]imidazol-2-yl)-1,2,5-oxadiazol-3-yl)-N^2-(tert-butyl)-5-(3-(trifluoromethyl)phenyl)-3,4-dihydroisoquinoline-2,8(1H)-dicarboxamide] | 3.34 |
| Cc1nnc(CCNC(=O)c2ccc(-c3cccc(C(F)(F)F)c3)c3c2CN(C(=O)NC(C)(C)C)CC3)[nH]1 [Example 60, N^2-(tert-butyl)-N^8-(2-(5-methyl-4H-1,2,4-triazol-3-yl)ethyl)-5-(3-(trifluoromethyl)phenyl)-3,4-dihydroisoquinoline-2,8(1H)-dicarboxamide] | 1.35 |

Second part, the compound after the results:

| IC50 [µM] | Structure (SMILES) |
| --- | --- |
| 0.132 | CC(C)(C)NC(=O)N1CCc2c(-c3cccc(C(F)(F)F)c3)ccc(C(=O)NCc3ccc4nonc4c3)c2C1 [Example 17, N^8-(benzo[c][1,2,5]oxadiazol-5-ylmethyl)-N^2-(tert-butyl)-5-(3-(trifluoromethyl)phenyl)-3,4-dihydroisoquinoline-2,8(1H)-dicarboxamide] |
| 0.905 | CC(C)(C)NC(=O)N1CCc2c(-c3cccc(C(F)(F)F)c3)ccc(C(=O)NCCc3ccccc3C(F)(F)F)c2C1 [Example 40, N^2-(tert-butyl)-N^8-(2-(trifluoromethyl)phenethyl)-5-(3-(trifluoromethyl)phenyl)-3,4-dihydroisoquinoline-2,8(1H)-dicarboxamide] |
| 0.0119 | CC(C)(C)NC(=O)N1CCc2c(-c3cccc(C(F)(F)F)c3)ccc(C(=O)NCCc3nc4cc(Cl)ccc4[nH]3)c2C1 [Example 6, N^2-(tert-butyl)-N^8-(2-(5-chloro-1H-benzo[d]imidazol-2-yl)ethyl)-5-(3-(trifluoromethyl)phenyl)-3,4-dihydroisoquinoline-2,8(1H)-dicarboxamide] |
| 0.126 | CC(C)(C)NC(=O)N1CCc2c(-c3cccc(C(F)(F)F)c3)ccc(C(=O)NCc3cccc4ncccc34)c2C1 [Example 16, N^2-(tert-butyl)-N^8-(quinolin-5-ylmethyl)-5-(3-(trifluoromethyl)phenyl)-3,4-dihydroisoquinoline-2,8(1H)-dicarboxamide] |
| 1.3 | CC(CNC(=O)c1ccc(-c2cccc(C(F)(F)F)c2)c2c1CN(C(=O)NC(C)(C)C)CC2)c1ccno1 (stereo not shown) [Example 46, N^2-(tert-butyl)-N^8-(2-(isoxazol-5-yl)propyl)-5-(3-(trifluoromethyl)phenyl)-3,4-dihydroisoquinoline-2,8(1H)-dicarboxamide] |
| 0.214 | CC(C)(C)NC(=O)N1CCc2c(-c3cccc(C(F)(F)F)c3)ccc(C(=O)N[C@@H](CO)c3ccc(C(F)(F)F)nc3)c2C1 (racemic) [Example 21, (R/S)-N^2-(tert-butyl)-N^8-(2-hydroxy-1-(6-(trifluoromethyl)pyridin-3-yl)ethyl)-5-(3-(trifluoromethyl)phenyl)-3,4-dihydroisoquinoline-2,8(1H)-dicarboxamide] |
| 0.351 | CC(C)(C)NC(=O)N1CCc2c(-c3cccc(C(F)(F)F)c3)ccc(C(=O)NCc3cnn4ccccc34)c2C1 [Example 30, N^2-(tert-butyl)-N^8-(pyrazolo[1,5-a]pyridin-3-ylmethyl)-5-(3-(trifluoromethyl)phenyl)-3,4-dihydroisoquinoline-2,8(1H)-dicarboxamide] |
| 1.28 | CC(CNC(=O)c1ccc(-c2cccc(C(F)(F)F)c2)c2c1CN(C(=O)NC(C)(C)C)CC2)c1ncco1 (stereo not shown) [Example 45, N^2-(tert-butyl)-N^8-(2-(oxazol-2-yl)propyl)-5-(3-(trifluoromethyl)phenyl)-3,4-dihydroisoquinoline-2,8(1H)-dicarboxamide] |
